# From patent US20140227335A1 (priority 2012, published 2014)
# Legend:
# HIV-1 92UG029 [1] = test: HIV infectivity assay in TZM-bl cells; assay type: cell-based; settings: 92UG029 (clade A, X4); for IC50: Human immunodeficiency virus 1, TZM-bl
# HIV-1 92TH026 = test: HIV infectivity assay in TZM-bl cells; assay type: cell-based; settings: 92TH026 (clade B, R5); for IC50: Human immunodeficiency virus 1, TZM-bl
# SIVmac251 32H = test: SIV infectivity assay in TZM-bl cells; assay type: cell-based; settings: Simian immunodeficiency virus
# HIV-1 92UG029 [2] = test: Anti-HIV efficacy in fresh human PBMC (reverse transcriptase activity); assay type: cell-based; settings: Human immunodeficiency virus 1, PBMC, 168 h; 92UG029 (clade A, X4); PBMCs, MOI = 0.1, 7 days
# HIV-1 93BR021 = test: as above; assay type: cell-based; settings: Human immunodeficiency virus 1, PBMC, 168 h; 93BR021 (clade B, R5); PBMCs, MOI = 0.1, 7 days
# HIV-1 98IN022 = test: as above; assay type: cell-based; settings: Human immunodeficiency virus 1, PBMC, 168 h; 98IN022 (clade C, R5); PBMCs, MOI = 0.1, 7 days
# HIV-1 RU132 = test: as above; assay type: cell-based; settings: Human immunodeficiency virus 1, PBMC, 168 h; RU132 (clade G, R5); PBMCs, MOI = 0.1, 7 days
# [3] = test system: Lactobacillus crispatus ATCC 33197; test: Lactobacillus toxicity testing (CFU); assay type: cell-based
# Protocol: (§1) Reference strains of L. crispatus and L. jensenii were obtained from the ATCC (Manassas, Va.) and cultured on Columbia blood agar plates at 35° C. in air enriched with 6% CO2. Bacterial suspensions were prepared in saline or ACES buffer to a density of 2 McFarland units (˜2×10^8 bacteria/mL), and exposed to PD (300 μM) or DMSO (10%) for 30 minutes at 37° C. After incubation, the cells were serially diluted in ACES buffer, pH 7.0 (Sigma-Aldrich, St. Louis, Mo.) and plated on blood agar plates to quantify colony forming unit per mL (CFU/mL)
# (§2) Different bacterial strains were incubated with 300 μM PD or solvent DMSO-containing control media at 37° C. for 30 min and plated on blood agar plates to estimate their corresponding colony forming units per ml (CFU/ml). Less than 1 log difference between control and test CFU is considered non-toxic 17.
# [4] = test system: Lactobacillus jensenii ATCC 25258; test: Lactobacillus toxicity testing (CFU); assay type: cell-based
# Protocol: as §1, §2
# [5] = test system: Lactobacillus jensenii LBP 28Ab; test: Lactobacillus toxicity testing (CFU); assay type: cell-based
# Protocol: as §1, §2
# Jc1 HCVcc = test: microbe, parasite or virus in culture; assay type: cell-based, HCV; settings: Hepatitis C virus, Huh7.5, read-out: IC50, inactivation of cell-free HCVcc
# VSV-Gpp [6] = assay type: cell-based, HIV lentivirus pseudotyped with VSV-G
# [7] = Primary cells toxicity testing (LDH); assay type: cell-based; settings: human, primary CD4+ T-lymphocytes, macrophages and dendritic cells, up to 14 days
# Protocol: Increasing concentrations were incubated with primary CD4^+ T-lymphocytes, macrophages and dendritic cells at 37° C. and the amounts of lactate dehydrogenase (LDH) present in the culture media were quantified after 0, 7 and 14 days. Error bars represent the standard deviation from two independent experiments.
# Primary cells were seeded at 6×10^3 cells/well in flat bottom 96-well plates in triplicates in the presence of increasing concentrations of PD. We used the permeabilization agent saponin (0.1%) as positive control. After 0, 7 and 14 days, the amounts of lactate dehydrogenase (LDH) in the cell culture media were quantified using the LDH Cytotoxicity Assay Kit (Cayman Chemical, Ann Arbor, Mich.).
# Cell death can occur either by apoptosis or by necrosis. Necrosis is accompanied by mitochondrial swelling and increased plasma membrane permeability, whereas apoptosis involves an articulated breakdown of the cell into membrane-bound apoptotic bodies. Lactate dehydrogenase (LDH) is a soluble cytosolic enzyme that is released into the culture medium following loss of membrane integrity resulting from either apoptosis or necrosis. LDH activity, therefore, can be used as an indicator of cell membrane integrity and serves as a general means to assess cytotoxicity resulting from chemical compounds or environmental toxic factors. […]
# [8] = test system: primary isolates of HIV and SIV; test: organism not typed; assay type: cell-based, HIV-1, HIV-2
# HIV-1 clinical isolates = test: Anti-HIV efficacy in fresh human PBMC (all isolates, summary); assay type: cell-based; settings: Human immunodeficiency virus 1, PBMC; eight HIV-1 clinical isolates in PBMCs
# [9] = Lactobacillus toxicity testing (all strains, summary); assay type: cell-based; settings: Lactobacillus (L. crispatus and L. jensenii), suspensions of vaginal commensal Lactobacillus strains; vaginal commensal bacteria Lactobacilli
# Protocol: as §1, §2
# Lactobacilli = test: as above; assay type: cell-based; settings: 300 μM PD, 37° C., 30 min
# Protocol: as §1, §2
# VSV-Gpp [10] = test system: VSV-Gpp
# [11] = 300 μM PD, less than 1 log difference is considered non-toxic
compound,measurement,setting,value
"N=C1Sc2ccccc2C2=NCCCN12 [PD, PD 404,182]",IC90,HIV-1 92UG029 [1]; PD in DMEM + 10% FBS,4400 ± 200 nM
same,IC90,HIV-1 92UG029 [1]; PD in cervical fluids,5300 ± 300 nM
same,IC90,HIV-1 92UG029 [1]; PD in seminal plasma,4710 ± 260 nM
same,IC50,HIV-1 92UG029 [1]; PD in DMEM + 10% FBS,1180 nM
same,IC50,HIV-1 92UG029 [1]; PD in cervical fluids,1470 nM
same,IC50,HIV-1 92UG029 [1]; PD in seminal plasma,1330 nM
same,IC90,HIV-1 92TH026; PD in DMEM + 10% FBS,2800 ± 200 nM
same,IC90,HIV-1 92TH026; PD in cervical fluids,3300 ± 100 nM
same,IC90,HIV-1 92TH026; PD in seminal plasma,2950 ± 160 nM
same,IC50,HIV-1 92TH026; PD in DMEM + 10% FBS,350 nM
same,IC50,HIV-1 92TH026; PD in cervical fluids,610 nM
same,IC50,HIV-1 92TH026; PD in seminal plasma,430 nM
same,IC50,SIVmac251 32H,1100 nM
same,IC50,HIV-1 92UG029 [2],1180 nM
same,IC90,HIV-1 92UG029 [2],4670 nM
same,IC50,HIV-1 93BR021,600 nM
same,IC90,HIV-1 93BR021,4260 nM
same,IC50,HIV-1 98IN022,400 nM
same,IC90,HIV-1 98IN022,1480 nM
same,IC50,HIV-1 RU132,200 nM
same,IC90,HIV-1 RU132,530 nM
same,Log(Control) − Log(PD),[3]; [11],−0.019
same,CFU of Lactobacillus treated with 300 μM PD,"[3]; 30 min, 37° C.","7,260,000 CFU"
same,Log(Control) − Log(PD),[4]; [11],−0.122
same,CFU of Lactobacillus treated with 300 μM PD,"[4]; 30 min, 37° C.","7,533,333 CFU"
same,Log(Control) − Log(PD),[5]; [11],−0.021
same,CFU of Lactobacillus treated with 300 μM PD,"[5]; 30 min, 37° C.","10,033,333 CFU"
same,IC50,Jc1 HCVcc,11000 nM
same,VSV-Gpp infectivity remaining,VSV-Gpp [6],0.1%
same,effect of fetal bovine serum on PD's antiviral activity,VSV-Gpp [6],no inhibitory effect
same,inhibition of VSV-Gpp supernatant infectivity relative to DMSO-treated virus,VSV-Gpp [6],~1000 fold
same,sensitivity of virus to PD in conditioned medium,VSV-Gpp [6],significantly less sensitive to inactivation by PD
same,CC50 at 14 days,[7],> 300000 nM
same,effect of seminal plasma on PD's anti-HIV activity,[8],does not negatively impact PD's anti-HIV activity
same,IC50,"[8]; Human immunodeficiency virus 1, TZM-bl, read-out: IC50 range over tested subtypes of HIV-1",420 to 1960 nM
same,IC90,"[8]; Human immunodeficiency virus 1, TZM-bl, read-out: IC90 range over tested subtypes of HIV-1",1580 to 7190 nM
same,IC50,[8]; TZM-bl,~1000 nM
same,IC50,"[8]; TZM-bl, read-out: IC50 range",330 to 1800 nM
same,IC90,"[8]; TZM-bl, read-out: IC90 range",1400 to 6600 nM
same,IC50,[8]; read-out: IC50 range,610 to 2300 nM
same,IC90,[8]; read-out: IC90 range,1800 to 7500 nM
same,IC50,HIV-1 clinical isolates,550 nM
same,CC50 at 30 min,[9],> 300000 nM
same,effect on Lactobacillus strains,Lactobacilli,no adverse effect on all strains of bacteria tested
same,activity loss in cervical fluid,VSV-Gpp [10],no activity loss
